According to patent publication US20090263509A1, “ANTIBACTERIAL AGENT AND ANTIBACTERIAL COMPOSITION” (SAKAMOTO BIO CO., LTD, priority 2004, published 2009):
≈ marks a conversion by molar mass, not a printed value.

Tests used:
Type in all cases: cell-based
[1] = tested on: Aspergillus niger (IFO9455 ATCC16401); test: Antimicrobial activity, agar medium dilution method (MIC / growth observation); set-up: key to Antibacterial Effect with Specimen Concentration: A: antibacterially effective; B: bacteriostatically active; C: some growth inhibiting effective; D: non effective
Description: (§1) Antimicrobial activity was assayed using the method described below. Paraben was used as a positive control. Staphylococcus aureus (IFO13276 ATCC6538), Candida albicans (IFO1594 ATCC10231), Aspergillus niger (IFO9455 ATCC16401), Pseudomonas aeruginosa (IFO013275 ATCC9027), Escherichia coli (IFO3972 ATCC8739) Antibacterial effect was evaluated by using either qualitative observation of the growing strains in the presence of each specimen or measuring the minimum inhibitory concentration (MIC) of the strains. An agar medium dilution method was adopted for the evaluation using Mueller-Hinton agar media (Eiken Chemical Co., Ltd.). The experiment was performed using the MIC test method following the standards of the Japanese Society of Chemotherapy. More specifically, each specimen was measured, when dissolved in 50/50 ethanol/water mixture and used to prepare 1 mL of each test specimen. 9 mL of measuring medium was added to the test specimens to create an agar plate. […] of the experimental bacterial liquid (live bacteria: 10^6-10^8/mL) was added to the agar plate. The growth and development of the bacteria was judged and recorded after it was cultured for 24 hours at 37° C. The minimum concentration that inhibited bacterial growth was regarded as MIC. The evaluation results of Example 1 are shown in Table 1 (MIC Rate) and Table 2 (Antibacterial Effect with Specimen Concentration). The MIC rates in Table 1 are given in μg/ml. […] The meaning of the symbols used in Table 2 is as follows: A: antibacterially effective, B: bacteriostatically active, C: some growth inhibiting effective, D: non effective.

[2] = tested on: Candida albicans (IFO1594 ATCC10231); test: as above; set-up: key to Antibacterial Effect with Specimen Concentration: A: antibacterially effective; B: bacteriostatically active; C: some growth inhibiting effective; D: non effective
Description: as §1

[3] = tested on: Staphylococcus aureus (IFO13276 ATCC6538); test: as above; set-up: key to Antibacterial Effect with Specimen Concentration: A: antibacterially effective; B: bacteriostatically active; C: some growth inhibiting effective; D: non effective
Description: as §1

[4] = tested on: Pseudomonas aeruginosa (IFO013275 ATCC9027); test: Antimicrobial activity, agar medium dilution method (MIC); details: Mueller-Hinton agar, 24 hours at 37° C.
Description: (§2) Antimicrobial activity was assayed using the method described below. Paraben was used as a positive control. Staphylococcus aureus (IFO13276 ATCC6538), Candida albicans (IFO1594 ATCC10231), Aspergillus niger (IFO9455 ATCC16401), Pseudomonas aeruginosa (IFO013275 ATCC9027), Escherichia coli (IFO3972 ATCC8739) Antibacterial effect was evaluated by using either qualitative observation of the growing strains in the presence of each specimen or measuring the minimum inhibitory concentration (MIC) of the strains. An agar medium dilution method was adopted for the evaluation using Mueller-Hinton agar media (Eiken Chemical Co., Ltd.). The experiment was performed using the MIC test method following the standards of the Japanese Society of Chemotherapy. More specifically, each specimen was measured, when dissolved in 50/50 ethanol/water mixture and used to prepare 1 mL of each test specimen. 9 mL of measuring medium was added to the test specimens to create an agar plate. […] of the experimental bacterial liquid (live bacteria: 10^6-10^8/mL) was added to the agar plate. The growth and development of the bacteria was judged and recorded after it was cultured for 24 hours at 37° C. The minimum concentration that inhibited bacterial growth was regarded as MIC. The evaluation results of Example 1 are shown in Table 1 (MIC Rate) and Table 2 (Antibacterial Effect with Specimen Concentration). […]

[5] = tested on: Escherichia coli (IFO3972 ATCC8739); test: as above; details: Mueller-Hinton agar, 24 hours at 37° C.
Description: as §2

[6] = specimen concentration 50 μg/ml
[7] = specimen concentration 500 μg/ml
[8] = Mueller-Hinton agar, 24 hours at 37° C.

Row | MIC [1, 8] [µg/mL] | MIC [2, 8] [µg/mL] | MIC [3, 8] [µg/mL] | MIC [4] [µg/mL] | MIC [5] [µg/mL] | SMILES | Antibacterial Effect with Specimen Concentration [1, 6] | Antibacterial Effect with Specimen Concentration [1, 7] | Antibacterial Effect with Specimen Concentration [2, 6] | Antibacterial Effect with Specimen Concentration [2, 7] | Antibacterial Effect with Specimen Concentration [3, 6] | Antibacterial Effect with Specimen Concentration [3, 7]
1 |  |  |  |  |  | COc1cc(O)c(OC)c(OC)c1C1COc2cc(O)ccc2C1 (centres unmarked) | C | A | C | C | D | C
2 |  |  |  |  |  | COC1=C(OC)C(=O)C(C2COc3c(ccc(O)c3OC)C2)=CC1=O (single isomer, unassigned) [Amorphaquinone, amorphaquinone] | C | A | B | A | A | A
3 |  |  |  |  |  | COc1ccc(C2COc3cc(O)ccc3C2)c(OC)c1O (single isomer, unassigned) [Mucronulatol, mucronulatol] | C | A | C | A | A | A
4 | 300 (≈ 2.17 mM) | 500 (≈ 3.62 mM) | 800 (≈ 5.79 mM) | 1000 (≈ 7.24 mM) | 800 (≈ 5.79 mM) | O=C(O)c1ccc(O)cc1 [Paraben, reference compound] |  |  |  |  |  | 
5 |  |  |  |  |  | COC1=C(OC)C(=O)C(C2COc3cc(O)ccc3C2)=CC1=O (centres unmarked) [Pendulone, pendulone] | C | A | C | A | A | A
